The molecules below were run against T1, cGMP-PDE prepared from the swine aeorta (Sus scrofa, UniProt A0A287B475) (assay: Enzyme inhibiting action with the use of cGMP-PDE prepared from the swine aorta). Conditions: CaM-independent cGMP-PDE, 1 mM EGTA, 1 μM cGMP substrate, DMSO 4% or below.
T1 construct: The swine aeorta was sliced; from tissue; host or cells: swine aorta, 100000×g supernatant, DEAE-Toyopearl 650S fraction
Format: biochemical
Method: Enzyme inhibiting action with the use of cGMP-PDE prepared from the swine aeorta
The enzymatic activity of the cGMP-PDE prepared from the swine aeorta was determined according to the method of Thompson et al. ^(1). The enzymatic activity thereof was determined in the presence of 1 mM EGTA by the use of 1 μM cGMP as a substrate. The compound of the present invention was dissolved in DMSO, added to the reaction liquid and examined for the inhibitory activity. The final concentration of DMSO in the reaction liquid was adjusted to 4% or below. (1) Thompson, W. J. and Strada, S. J., Cyclic Nucleotide Phosphodiesterase (PDE), in Methods of Enzymatic Analysis, vol 4, p.127-234, 1984.
The swine aeorta was sliced, followed by the addition of 10 times by volume as much Buffer A (20 mM Tris/HCl, 2 mM Mg acetate, 1 mM Dithiothreitol, 5 mM EDTA, 1400 TIU/liter aprotinin, 10 mg/liter leupeptin, 1 mM benzamidine, 0.2 mM PMSF, pH 7.5). The obtained mixture was homogenized and the homogenate was centrifuged at 100000×g for one hour. The obtained supernatant was supplied a DEAE-Toyopearl 650S (Tosoh, Tokyo, Japan) column. After the column was washed with Buffer B (50 mM Tris/HCl, 0.1 mM EGTA, 2 mM Mg acetate, 1 mM Dithiothreitol, 0.2 mM PMSF, pH 7.5), gradient elution with 0.05 to 0.4M NaCl was conducted. Thus, CaM-independent cGMP-PDE fractions were obtained.

IC50	Compound
36 nM	COc1ccc2nc(OCc3ccccc3)nc(NCc3ccc4c(c3)OCO4)c2c1 [Example 91, 2-Benzyloxy-4-(4-methylenedioxybenzyl)amino-6-methoxyquinazoline]
560 nM	COc1nc(NCc2ccc3c(c2)OCO3)c2cc(OC)c(OC)c(OC)c2n1 [Example 167, 2,7,8-Tetramethoxy-4-(3,4-methylenedioxybenzyl)aminoquinazoline]
21 nM	O=C(O)C1CCN(c2nc(NCc3ccc4c(c3)OCO4)c3cc(Br)ccc3n2)CC1 [Example 376]
190 nM	COCCN(Cc1ccc2c(c1)OCO2)c1ncnc2c(OC)c(OC)c(OC)cc12 [Example 42, 4-[N-(2-Methoxyethyl)-(3,4-methylenedioxybenzyl)-amino]-6,7,8-trimethoxyquinazoline]
420 nM	COc1cc2c(NC(C)c3ccc4c(c3)OCO4)ncnc2c(OC)c1OC (stereo not drawn) [Example 38, 4-(α-Methyl-3,4-methylenedioxybenzyl)amino-6,7,8-trimethoxyquinazolin]
6 nM	N#Cc1ccc2nc(N3CCC(O)CC3)nc(NCc3ccc4c(c3)OCO4)c2c1 [Example 184, 2-(4-Hydroxypiperidino)-4-(3,4-methylenedioxybenzyl)amino-6-cyanoquinazoline]
2 nM	CNC(=O)Nc1nc(NCc2ccc3c(c2)OCO3)c2cc(Cl)ccc2n1 [Example 202, 2-(Methylcarbamoyl)amino-4-(3,4-methylenedioxybenzyl)amino-6-chloroquinazoline]
380 nM	CCOc1ccc2ncnc(NCc3ccc4c(c3)OCO4)c2c1 [Example 64, 4-(3,4-Methylenedioxybenzyl)amino-6-ethoxyquinazoline]
360 nM	COc1ccc(CNc2ncnc3c(OC)c(OC)c(OC)cc23)cc1F [Example 22, 4-(3-Fluoro-4-methoxybenzyl)amino-6,7,8-trimethoxyquinazoline]
780 nM	COc1cc2c(NCc3ccc4c(c3)OCCO4)ncnc2c(OC)c1OC [Example 25, 4-(4-Ethylenedioxybenzyl)amino-6,7,8-trimethoxyquinazoline]
550 nM	COc1ccc2nc(C(C)C)nc(NCc3ccc4c(c3)OCO4)c2c1 [Example 82, 2-Isopropyl-4-(3,4-methylenedioxybenzyl)amino-6-methoxyquinazoline]
110 nM	COc1nc2ccc(Cl)cc2n1Cc1ccc2c(c1)OCO2 [Example 266, 6-Chloro-2-methoxy-1-(3,4-methylenedioxybenzyl)benzimidazole]
69 nM	COc1ccc(CNc2ncnc3ccc(SC)cc23)cc1F [Example 51, 4-(3-Fluoro-4-methoxybenzyl)amino-6-methylthioquinazoline]
220 nM	CCCOc1ccccc1-c1nc(NCc2ccc3c(c2)OCO3)c2ccccc2n1 [Example 84, 2-(2-Propoxyphenyl)-4-(3,4-methylenedioxybenzyl)aminoquinazoline]
420 nM	COC1Cc2cc(CNc3ncnc4ccc(Cl)cc34)ccc2O1 (stereo not drawn) [Example 61, 4-(2-Methoxy-2,3-dihydrobenzofuran-5-yl)methylamino6-chloroquinazoline]
8 nM	Clc1ccc2nc(N3CCOCC3)nc(NCc3ccc4c(c3)OCO4)c2c1 [Example 182, 2-Morpholino-4-(3,4-methylenedioxybenzyl)amino-6-chloroquinazoline]
300 nM	COc1cc2c(NCc3ccc4c(c3)OCO4)nc(/C=C(/C)C(=O)O)nc2c(OC)c1OC [Example 128, (Z)-2-(2-Carboxy-1-propenyl)-4-(3,4-methylenedioxybenzyl)amino-6,7,8-trimethoxyquinazoline]
4 nM	CCOC(=O)c1nc(NCc2ccc3c(c2)OCO3)c2cc(Cl)ccc2n1 [Example 107, 2-Ethoxycarbonyl-4-(3,4-methylenedioxybenzyl)amino-6-chloroquinazoline]
190 nM	Cc1ccc2ncnc(NCc3ccc4c(c3)OCO4)c2c1 [Example 69, 4-(3,4-Methylenedioxybenzyl)amino-6-methylquinazoline]
350 nM	CCOC(=O)CN(Cc1ccc2c(c1)OCO2)c1ncnc2c(OC)c(OC)c(OC)cc12 [Example 41, 4-[N-(Ethoxycarbonylmethyl)-(3,4-methylenedioxybenzyl)amino]-6,7,8-trimethoxyquinazoline]

IC50	Compound
1 nM	COc1ccc(CNc2nc(/C=C(/C)C(=O)O)nc3ccc(Cl)cc23)cc1Cl [Example 126, (Z)-2-(2-Carboxy-1-propenyl)-4-(3-chloro-4-methoxybenzyl)amino-6-chloroquinazoline]
11 nM	OCCOc1nc(NCc2ccc3c(c2)OCO3)c2cc(Cl)ccc2n1 [Example 168]
180 nM	CN(CC(=O)O)c1nc(NCc2ccc3c(c2)OCO3)c2cc(C#N)ccc2n1 [Example 241, 2-(N-Carboxymethyl-N-methylamino)-4-(3,4-methylenedioxybenzyl)amino-6-cyanoquinazoline]
410 nM	COc1ccc2ncnc(NCc3ccc4nc[nH]c4c3)c2c1 [Example 45, 4-(Benzimidazol-5-ylmethyl)amino-6-methoxyquinazoline]
500 nM	c1ccc2cc3c(NCc4ccc5c(c4)OCO5)ncnc3cc2c1 [Example 78, 4-(3,4-Methylenedioxybenzyl)aminobenzo[g]quinazoline]
650 nM	CCN(Cc1ccc2c(c1)OCO2)c1ncnc2c(OC)c(OC)c(OC)cc12 [Example 40]
2 nM	CCOC(=O)/C=C/c1nc(NCc2ccc(OC)c(Cl)c2)c2cc(Cl)ccc2n1 [Example 115, (E)-2-(2-Ethoxycarbonylvinyl)-4-(3-chloro-4-methoxybenzyl)amino-6-chloroquinazoline]
15 nM	ON=Cc1nc(NCc2ccc3c(c2)OCO3)c2cc(Cl)ccc2n1 [Example 146, 2-Hydroxyiminomethyl-4-(3,4-methylenedioxybenzyl)amino-6-chloroquinazoline]
0.16 nM	COc1ccc(CNc2cc(N3CCC(C(=O)O)CC3)nc3ccc(C#N)cc23)cc1Cl [Example 260, 2-(4-Carboxypiperidino)-4-(3-chloro-4-methoxybenzyl)amino-6-cyanoquinoline]
240 nM	COc1ccc2ncnc(NCc3ccc4c(c3)OCO4)c2c1 [Example 46, 4-(3,4-Methylenedioxybenzyl)amino-6-methoxyquinazoline]
19 nM	OCCN(CCO)c1nc(NCc2ccc3c(c2)OCO3)c2cc(Cl)ccc2n1 [Example 191, 2-Bis(2-hydroxyethyl)amino-4-(3,4-methylenedioxybenzyl)amino-6-chloroquinazoline]
5 nM	O=C(O)CCCNc1nc(NCc2ccc3c(c2)OCO3)c2cc(Cl)ccc2n1 [Example 238, 2-(3-Carboxypropyl)amino-4-(3,4-methylenedioxybenzyl)amino-6-chloroquinazoline]
10 nM	OC1CCN(c2nc(NCc3ccc4c(c3)OCO4)c3cc(Cl)ccc3n2)CC1 [Example 185, 2-(4-Hydroxypiperidino)-4-(3,4-methylenedioxybenzyl)amino-6-chloroquinazoline]
2.6 nM	N#Cc1ccc2nc(N3CCC(C(=O)O)CC3)nc(NCc3ccc4c(c3)OCO4)c2c1 [Example 227, 2-(4-Carboxypiperidino)-4-(3,4-methylenedioxybenzyl)amino-6-cyanoquinazoline]
100 nM	NC(=O)c1ccc2nc(N3CCC(C(=O)O)CC3)nc(NCc3ccc4c(c3)OCO4)c2c1 [Example 245, 2-(4-Carboxypiperidino)-4-(3,4-methylenedioxybenzyl)amino-6-carbamoylquinazoline]
44 nM	COc1ccc(CNc2nc(N3CCC(C(=O)O)CC3)nc3c(OC)c(OC)c(OC)cc23)cc1Cl [Example 232, 2-(4-Carboxypiperidino)-4-(3-chloro-4-methoxybenzyl)amino-6,7,8-trimethoxyquinazoline]
30 nM	O=[N+]([O-])c1cc(CNc2ncnc3ccc(Cl)cc23)ccc1Cl [Example 55]
940 nM	COc1cc2ncnc(NCc3ccc4c(c3)OCO4)c2cc1NC(C)=O [Example 73, 4-(3,4-Methylenedioxybenzyl)amino-6-acetamido-7-methoxyquinazoline]
32 nM	O=C(O)C1CCN(c2cc(NCc3ccc4c(c3)OCO4)c3cc(Cl)ccc3n2)CC1 [Example 255, 2-(4-Carboxypiperidino)-4-(3,4-methylenedioxybenzyl)amino-6chloroquinoline]
12 nM	Oc1nc(NCc2ccc3c(c2)OCO3)c2cc(Cl)ccc2n1 [Example 177, 2-Hydroxy-4-(3,4-methylenedioxybenzyl)amino-6-chloroquinazoline]

Compound	IC50
COCCCCOc1nc(NCc2ccc3c(c2)OCO3)c2cc(Cl)ccc2n1 [Example 175, 2-(4-Methoxybutoxy)-4-(3,4-methylenedioxybenzyl)amino-6-chloroquinazoline]	6 nM
COc1ccc2nc(N3CCC(C(=O)O)CC3)nc(NCc3ccc(OC)c(Cl)c3)c2c1 [Example 234, 2-(4-Carboxypiperidino)-4-(3-chloro-4-mehtoxybenzyl)amino-6-methoxyquinazoline]	6 nM

Reference: patent US5801180A, “Quinazoline derivatives” (priority 1991, dated 1998)
